Reference: patent US20210371491A1, “CHIMERIC ANTIGEN RECEPTORS THAT BIND TO PROSTATE SPECIFIC MEMBRANE ANTIGEN” (Albert-Ludwigs-Universitaet Freiburg, priority 2018, published 2021)
Several values for one entry are separate records, joined by “and”; a condition that tells them apart may be missing. Equal entries are not always repeated.

System: C4-2^luc+ tumor xenografts
Assay: Treatment of C4-2^luc+ tumor xenografts by docetaxel chemotherapy plus intravenous CAR T cells (Example 12)
Format: in vivo, mice
Procedure: (A) Schematic of combined chemotherapy with intravenous CAR T cell therapy. Tumor engraftment was established in animals by subcutaneous injection of 1.5×10^6 cells. Chemotherapy had started at day 1 of the treatment for 3 days by intraperitoneal injection of docetaxel (DOC, 6 mg/kg bw). 48 hours after the last chemotherapy cycle, mice were injected intravenously with single doses of 5×10^6 CAR28 (n=3) or CAR41 T cells (n=3). Control mice were injected with docetaxel alone (n=3) or left untreated (control, n=4). Tumors were visualized via BLI until the end of treatment at day 17. D, day; i.v, intravenous injection; i.p, intraperitoneal; s.c, subcutaneous.
(B) Antitumor activity of CAR28 and CAR41 T cells in combination with docetaxel chemotherapy. Mice with subcutaneously growing C4-2^luc+ tumors (200-250 mm^3) were intraperitoneally injected with docetaxel (DOC; 6 mg/kg bw) on days 1, 2, and 3 of treatment. 48 hours later mice were additionally injected with a single dose of 5×10^6 CAR28 (n=3) or CAR41 T cells (n=3) intravenously. Tumor growth was monitored by BLI. […] Statistical significant differences are indicated by *p<0.05.
Mice with large C4-2^luc+ tumor xenografts (200-250 mm^3) were intraperitoneally injected with 3 daily cycles of docetaxel (DOC, 6 mg/kg bw on days 1, 2, and 3 of treatment) (FIG. 9A). 48 hours after the last cycle, mice were intravenously injected with only one dose of 5×10^6 CAR28 (n=3) CAR41 T cells (n=3), or PBS (n=3) respectively (FIG. 9A). Control animals (n=4) remained completely untreated. Tumor growth was monitored by BLI as described above. […] Compared to the control group (1817.5±165.5 mm^3) tumor end volumes of 338.2±355.6 mm^3 for mice treated with DOC alone and of 599.9±317.2 mm^3 for mice treated with DOC+CAR28 were reached on day 17 (FIG. 9C). […] A mean tumor volume of 50.2±71.0 mm^3 was determined (FIG. 9C).

CC(=O)O[C@@]12CO[C@@H]1C[C@H](O)[C@@]1(C)C(=O)[C@H](O)C3=C(C)[C@@H](OC(=O)[C@H](O)[C@@H](NC(=O)OC(C)(C)C)c4ccccc4)C[C@@](O)([C@@H](OC(=O)c4ccccc4)[C@H]21)C3(C)C [DOC, docetaxel]
tumor growth compared to control group (in words) (DOC 6 mg/kg bw days 1-3 ± CAR T cells i.v.): inhibition of tumor growth
partial remission (PR), mice (DOC 6 mg/kg bw i.p. days 1-3, CAR T cells 5×10^6 i.v. 48 h later, tumors 200-250 mm^3): ⅔
mean tumor volume (day 17, DOC 6 mg/kg bw days 1-3 ± CAR T cells i.v.): 338.2±355.6 mm^3 and 338.3±355.6 mm^3
